Assay results published in ChEMBL document CHEMBL1201862, “PubChem BioAssay data set” (2004).
Calls of active or inactive are those of the source.

Assays:
[1] = Counterscreen for inhibitors of Trypanosoma brucei methionyl tRNA synthetase (MetRS): Luminescence-based cell-based high throughput dose response assay to identify compounds that are cytotoxic to Jurkat human T lymphocyte cells.; format: functional
[2] = Late stage counterscreen for inhibitors of Trypanosoma brucei methionyl tRNA synthetase (MetRS): Luminescence-based cell-based high throughput dose response assay to identify compounds that are cytotoxic to Jurkat human T lymphocyte cells.; format: functional
[3] = molecular target: T1, Methionyl-tRNA synthetase, putative (Trypanosoma brucei brucei, UniProt Q38C91); format: functional, Trypanosoma brucei brucei strain 927/4 GUTat10.1
T1 sequence (Q38C91 whole entry): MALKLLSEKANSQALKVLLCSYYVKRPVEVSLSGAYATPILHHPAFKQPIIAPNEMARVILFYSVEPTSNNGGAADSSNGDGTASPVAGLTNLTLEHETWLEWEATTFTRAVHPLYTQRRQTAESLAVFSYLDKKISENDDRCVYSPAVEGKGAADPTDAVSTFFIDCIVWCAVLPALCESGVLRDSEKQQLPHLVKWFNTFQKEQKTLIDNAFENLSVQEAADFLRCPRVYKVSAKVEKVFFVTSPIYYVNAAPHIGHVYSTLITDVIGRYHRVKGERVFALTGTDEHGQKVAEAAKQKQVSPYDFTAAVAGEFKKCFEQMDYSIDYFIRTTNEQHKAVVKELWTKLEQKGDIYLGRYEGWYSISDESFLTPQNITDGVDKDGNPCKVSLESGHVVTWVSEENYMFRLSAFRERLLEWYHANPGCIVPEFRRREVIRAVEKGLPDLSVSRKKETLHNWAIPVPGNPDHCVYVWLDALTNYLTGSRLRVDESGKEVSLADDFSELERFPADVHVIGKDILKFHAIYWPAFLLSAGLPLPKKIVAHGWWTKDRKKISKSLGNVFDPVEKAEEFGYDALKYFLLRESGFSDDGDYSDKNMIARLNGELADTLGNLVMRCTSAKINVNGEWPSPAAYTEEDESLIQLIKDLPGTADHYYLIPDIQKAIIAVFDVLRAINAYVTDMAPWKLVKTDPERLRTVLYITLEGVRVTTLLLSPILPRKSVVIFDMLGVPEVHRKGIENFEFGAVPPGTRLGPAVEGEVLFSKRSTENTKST

[4] = molecular target: T1, Methionyl-tRNA synthetase, putative; format: functional, Trypanosoma brucei brucei strain 927/4 GUTat10.1; remark: listed apart in the source
Prothrombin = Prothrombin (Bos taurus, UniProt P00735); experiment: thrombin protease inhibitors – biochemical, fluorescence polarization, uHTS hits, dose response (AID 602369); format: functional
[5] = molecular target: DNA dC->dU-editing enzyme APOBEC-3A (Homo sapiens, UniProt P31941); experiment: A3A deaminase inhibition for selectivity – biochemical, dose response (AID 504722); format: functional
[6] = molecular target: DNA dC->dU-editing enzyme APOBEC-3G (Homo sapiens, UniProt Q9HC16); experiment: Dose Response confirmation of small molecule APOBEC3G DNA Deaminase Inhibitors via a fluorescence-based single-stranded DNA deaminase assay. [Related pubchem assays (depositor defined):AID493012, AID493028]; format: functional
[7] = molecular target: E3 ubiquitin-protein ligase UHRF1 (Homo sapiens, UniProt Q96T88); experiment: Counterscreen for inhibitors of 5-meCpG-binding domain protein 2 (MBD2): TRFRET-based biochemical high throughput dose response assay to identify inhibitors of binding of ubiquitin-like with PHD and ring finger domains 1 (UHRF1) to methylated oligonucleotide.
[8] = molecular target: Eukaryotic translation initiation factor 4E (Mus musculus, UniProt P63073); experiment: blockers of eIF4G binding by eIF4E – biochemical, TR-FRET, dose response (AID 855); format: functional;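 further: potency for disrupting eIF4E binding to eIF4GI seen as loss of FRET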
[9] = molecular target: T2, Carboxy-terminal domain RNA polymerase II polypeptide A small phosphatase 1 (Homo sapiens, UniProt Q9GZU7); experiment: CTDSP1 inhibitors, concentration-response, biochemical, absorbance readout, ultra-high-throughput screen actives (AID 540297); format: functional
T2 sequence (Q9GZU7 whole entry): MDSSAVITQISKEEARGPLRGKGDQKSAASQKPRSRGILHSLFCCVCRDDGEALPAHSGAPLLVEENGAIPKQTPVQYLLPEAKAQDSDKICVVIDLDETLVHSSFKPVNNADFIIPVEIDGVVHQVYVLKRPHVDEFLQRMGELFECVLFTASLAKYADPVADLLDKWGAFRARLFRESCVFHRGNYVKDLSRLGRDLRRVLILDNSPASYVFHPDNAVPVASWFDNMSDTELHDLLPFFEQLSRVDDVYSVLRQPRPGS

[10] = molecular target: 72 kDa type IV collagenase (Homo sapiens, UniProt P08253); experiment: Dose Response validation of uHTS RPN11 inhibitor hits using a MMP-2 Fluorescence assay.; format: functional
[11] = molecular target: 26S proteasome non-ATPase regulatory subunit 14 (Homo sapiens, UniProt O00487); experiment: inhibition of proteasome subunit RPN11 – biochemical, fluorescence polarization, uHTS hits, confirmation (AID 602368); format: functional
[12] = molecular target: DNA (cytosine-5)-methyltransferase 1 (Homo sapiens, UniProt P26358); experiment: inhibition of DNA methylation by DNMT1 – biochemical, fluorescent molecular beacon, confirmation (AID 602386); format: functional
Fibrinogen beta chain [13] = molecular target: T3, Fibrinogen beta chain (Homo sapiens, UniProt P02675); experiment: Fluorescence polarization-based biochemical high throughput dose response assay to identify inhibitors that disrupt the binding of a cyclic peptide (Tn7) to the fibrin proteolytic product D-Dimer and fragment E complex [DD(E )].
Fibrinogen beta chain [14] = molecular target: T3, Fibrinogen beta chain; experiment: Fluorescence polarization-based biochemical high throughput dose response assay to identify inhibitors that disrupt the binding of a cyclic peptide (Tn6) to the fibrin proteolytic product D-Dimer and fragment E complex [DD(E )].
BJ [15] = experiment: BJ-TERT-LT-ST fibroblast viability loss – cell-based, RAS-independent, luminescence, dose response (AID 1935); format: functional; details: Homo sapiens;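 further: BJ fibroblasts immortalized with TERT plus LT and ST oncogenes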
BJ [16] = experiment: BJ-TERT fibroblast viability loss – cell-based, RAS-independent, luminescence, dose response (AID 1933); format: functional; details: Homo sapiens
[17] = alpha-synuclein stem-loop luciferase translation blockers – H4 neuroglioma cells, luminescence, confirmation (AID 1988); format: functional, cell-based
BJ [18] = experiment: cells; format: functional, cell-based; details: Homo sapiens
[19] = luciferase reporter signal suppression in cells – H4 neuroglioma cells, luminescence, dose response (AID 1990); format: functional, cell-based
[20] = Luminescence Cell-Based Dose Response HTS to Identify Inhibitors of 5'UTR Stem-Loop Driven Prion Protein mRNA Translation in H4 Neuroglioblastoma Cells. [Related pubchem assays: 1827 (Project Summary), 1813 (Primary HTS)]; format: functional
[21] = DRD fibroblast viability loss – cell-based, non-viral oncogenic, luminescence, dose response (AID 1934); format: functional; details: Homo sapiens
[22] = toxicity toward HEK293 cells – cell-based, dry powder samples, cytotoxicity control, dose response (AID 720567); format: functional
[23] = HEK-293T viability loss after treatment – luminescence, T-cell screen hits, cytotoxicity control for TCR NF-kB inhibitor project, dose response (AID 489026); format: functional, cell-based;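 further: cells exposed to compound about 14 hours before the viability readout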
[24] = molecular target: T4, Oxysterols receptor LXR-beta (Homo sapiens, UniProt P55055); experiment: LXR agonists, Gal4 luciferase reporter, dose response, counter-screen for ssDAF-12 agonist project, cell-based, luminescence, HEK293, S. stercoralis campaign (AID 720737); format: functional; details: read-out: IC50 (the source's name)
T4 sequence (P55055 whole entry): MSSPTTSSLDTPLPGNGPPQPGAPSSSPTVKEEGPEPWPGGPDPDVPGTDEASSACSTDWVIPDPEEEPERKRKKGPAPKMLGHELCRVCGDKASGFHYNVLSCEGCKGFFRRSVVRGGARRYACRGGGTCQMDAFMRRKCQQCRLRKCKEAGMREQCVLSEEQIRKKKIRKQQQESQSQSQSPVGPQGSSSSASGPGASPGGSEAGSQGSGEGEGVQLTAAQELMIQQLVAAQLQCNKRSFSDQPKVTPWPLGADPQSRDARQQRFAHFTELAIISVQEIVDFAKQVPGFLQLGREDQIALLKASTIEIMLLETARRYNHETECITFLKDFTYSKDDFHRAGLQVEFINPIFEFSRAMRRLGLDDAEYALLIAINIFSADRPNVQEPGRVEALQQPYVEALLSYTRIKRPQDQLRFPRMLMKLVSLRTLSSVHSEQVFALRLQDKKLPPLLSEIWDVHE

[25] = Luminescence-based cell-based high throughput dose response assay to identify activators of the DAF-12 from the parasite S. stercoralis (ssDAF-12).; format: functional
[26] = OVCAR-3 cell viability loss – plate reader, dry powder samples, PAX8 inhibitor project, dose response (AID 743044); format: functional, cell-based
Paired box protein Pax-8 = Paired box protein Pax-8 (Homo sapiens, UniProt Q06710); experiment: PAX8 transcriptional activity inhibition in RMG-I – RMG-I cells, luciferase, cherry-pick, dose response (AID 687027); format: functional, cell-based;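 further: luciferase reporter driven by Pax8 target thyroperoxidase promoter measured by SteadyGlo luminescence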
Kallikrein-7 = Kallikrein-7 (Homo sapiens, UniProt P49862); experiment: Fluorescence Intensity-based biochemical primary high throughput dose response assay to identify activators of kallikrein-7 (K7) zymogen.
[27] = reduced cellular PGC1a acetyl-lysine signal – cell-based, cherry-picked samples, dose response (AID 720514); format: functional;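 further: potency may reflect raised or lowered acetylation signal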

T3 sequence (P02675 whole entry, the tested form may be a part): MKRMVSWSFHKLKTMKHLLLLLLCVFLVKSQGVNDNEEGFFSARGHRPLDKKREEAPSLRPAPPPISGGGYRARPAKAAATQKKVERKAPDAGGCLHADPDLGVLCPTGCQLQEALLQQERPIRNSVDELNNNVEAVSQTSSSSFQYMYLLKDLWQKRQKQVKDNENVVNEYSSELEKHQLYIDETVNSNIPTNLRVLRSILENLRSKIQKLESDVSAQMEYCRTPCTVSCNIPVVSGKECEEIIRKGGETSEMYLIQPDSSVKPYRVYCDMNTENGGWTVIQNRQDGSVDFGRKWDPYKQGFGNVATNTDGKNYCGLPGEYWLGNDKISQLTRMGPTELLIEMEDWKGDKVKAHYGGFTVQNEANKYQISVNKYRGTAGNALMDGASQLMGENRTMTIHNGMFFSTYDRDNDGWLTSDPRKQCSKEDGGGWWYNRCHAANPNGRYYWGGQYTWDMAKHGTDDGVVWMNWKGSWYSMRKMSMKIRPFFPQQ
26S proteasome non-ATPase regulatory subunit 14, sequence (O00487 whole entry): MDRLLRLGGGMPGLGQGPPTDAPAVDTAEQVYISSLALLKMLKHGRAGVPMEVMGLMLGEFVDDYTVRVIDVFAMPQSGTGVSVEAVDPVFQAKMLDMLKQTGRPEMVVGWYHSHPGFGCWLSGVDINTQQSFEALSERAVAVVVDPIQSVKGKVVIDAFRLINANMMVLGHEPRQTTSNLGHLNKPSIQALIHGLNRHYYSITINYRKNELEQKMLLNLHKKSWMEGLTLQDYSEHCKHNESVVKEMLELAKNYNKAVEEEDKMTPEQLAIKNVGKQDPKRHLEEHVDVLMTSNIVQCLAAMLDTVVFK
Paired box protein Pax-8, sequence (Q06710 whole entry): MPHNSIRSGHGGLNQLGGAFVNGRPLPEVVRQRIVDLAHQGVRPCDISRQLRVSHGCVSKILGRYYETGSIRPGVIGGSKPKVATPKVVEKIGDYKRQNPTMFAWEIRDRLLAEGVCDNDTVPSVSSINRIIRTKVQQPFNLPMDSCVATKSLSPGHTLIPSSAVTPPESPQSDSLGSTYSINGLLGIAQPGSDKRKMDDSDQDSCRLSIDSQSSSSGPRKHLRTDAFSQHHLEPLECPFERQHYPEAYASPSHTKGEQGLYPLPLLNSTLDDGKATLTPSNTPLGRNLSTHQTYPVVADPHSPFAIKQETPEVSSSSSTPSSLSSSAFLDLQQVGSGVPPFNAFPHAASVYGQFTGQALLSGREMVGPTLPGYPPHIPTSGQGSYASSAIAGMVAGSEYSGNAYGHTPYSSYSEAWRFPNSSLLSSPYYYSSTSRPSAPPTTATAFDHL
DNA dC->dU-editing enzyme APOBEC-3A, sequence (P31941 whole entry): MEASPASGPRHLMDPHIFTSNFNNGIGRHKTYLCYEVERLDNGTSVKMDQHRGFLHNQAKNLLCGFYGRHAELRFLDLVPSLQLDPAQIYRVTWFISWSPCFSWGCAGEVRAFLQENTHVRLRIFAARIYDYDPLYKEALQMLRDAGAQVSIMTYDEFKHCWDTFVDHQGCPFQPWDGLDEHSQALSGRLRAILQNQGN
Kallikrein-7, sequence (P49862 whole entry): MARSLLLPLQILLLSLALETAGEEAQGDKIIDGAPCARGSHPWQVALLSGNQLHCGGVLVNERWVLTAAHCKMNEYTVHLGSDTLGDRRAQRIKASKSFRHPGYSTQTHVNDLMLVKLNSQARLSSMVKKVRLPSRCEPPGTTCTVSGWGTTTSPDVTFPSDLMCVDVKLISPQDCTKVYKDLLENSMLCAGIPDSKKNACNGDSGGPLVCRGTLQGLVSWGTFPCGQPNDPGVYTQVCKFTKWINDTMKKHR
72 kDa type IV collagenase, sequence (P08253 whole entry): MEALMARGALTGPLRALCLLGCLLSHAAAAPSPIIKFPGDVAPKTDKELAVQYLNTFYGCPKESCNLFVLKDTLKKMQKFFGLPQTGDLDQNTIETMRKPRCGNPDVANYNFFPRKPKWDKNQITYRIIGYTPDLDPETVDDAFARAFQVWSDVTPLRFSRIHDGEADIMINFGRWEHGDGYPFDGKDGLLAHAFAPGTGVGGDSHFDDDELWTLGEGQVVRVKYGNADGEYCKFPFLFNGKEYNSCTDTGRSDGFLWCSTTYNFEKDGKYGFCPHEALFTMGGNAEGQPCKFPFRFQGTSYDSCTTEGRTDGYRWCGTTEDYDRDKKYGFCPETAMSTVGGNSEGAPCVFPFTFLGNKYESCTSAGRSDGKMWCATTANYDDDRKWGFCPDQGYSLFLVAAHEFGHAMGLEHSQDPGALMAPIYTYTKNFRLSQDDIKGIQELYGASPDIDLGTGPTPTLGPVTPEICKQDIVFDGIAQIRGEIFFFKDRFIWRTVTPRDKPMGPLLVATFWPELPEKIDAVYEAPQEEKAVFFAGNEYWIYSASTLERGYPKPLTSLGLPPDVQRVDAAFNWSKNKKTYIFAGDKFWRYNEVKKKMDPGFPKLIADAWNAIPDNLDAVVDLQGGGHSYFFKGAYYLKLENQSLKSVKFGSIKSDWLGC
Eukaryotic translation initiation factor 4E, sequence (P63073 whole entry, the tested form may be a part): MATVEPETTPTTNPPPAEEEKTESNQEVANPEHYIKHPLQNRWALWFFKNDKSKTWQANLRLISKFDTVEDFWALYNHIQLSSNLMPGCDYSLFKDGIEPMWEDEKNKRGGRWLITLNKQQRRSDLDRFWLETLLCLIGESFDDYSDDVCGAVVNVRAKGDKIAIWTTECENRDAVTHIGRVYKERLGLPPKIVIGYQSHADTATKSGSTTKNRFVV
DNA (cytosine-5)-methyltransferase 1, sequence (P26358 whole entry, the tested form may be a part): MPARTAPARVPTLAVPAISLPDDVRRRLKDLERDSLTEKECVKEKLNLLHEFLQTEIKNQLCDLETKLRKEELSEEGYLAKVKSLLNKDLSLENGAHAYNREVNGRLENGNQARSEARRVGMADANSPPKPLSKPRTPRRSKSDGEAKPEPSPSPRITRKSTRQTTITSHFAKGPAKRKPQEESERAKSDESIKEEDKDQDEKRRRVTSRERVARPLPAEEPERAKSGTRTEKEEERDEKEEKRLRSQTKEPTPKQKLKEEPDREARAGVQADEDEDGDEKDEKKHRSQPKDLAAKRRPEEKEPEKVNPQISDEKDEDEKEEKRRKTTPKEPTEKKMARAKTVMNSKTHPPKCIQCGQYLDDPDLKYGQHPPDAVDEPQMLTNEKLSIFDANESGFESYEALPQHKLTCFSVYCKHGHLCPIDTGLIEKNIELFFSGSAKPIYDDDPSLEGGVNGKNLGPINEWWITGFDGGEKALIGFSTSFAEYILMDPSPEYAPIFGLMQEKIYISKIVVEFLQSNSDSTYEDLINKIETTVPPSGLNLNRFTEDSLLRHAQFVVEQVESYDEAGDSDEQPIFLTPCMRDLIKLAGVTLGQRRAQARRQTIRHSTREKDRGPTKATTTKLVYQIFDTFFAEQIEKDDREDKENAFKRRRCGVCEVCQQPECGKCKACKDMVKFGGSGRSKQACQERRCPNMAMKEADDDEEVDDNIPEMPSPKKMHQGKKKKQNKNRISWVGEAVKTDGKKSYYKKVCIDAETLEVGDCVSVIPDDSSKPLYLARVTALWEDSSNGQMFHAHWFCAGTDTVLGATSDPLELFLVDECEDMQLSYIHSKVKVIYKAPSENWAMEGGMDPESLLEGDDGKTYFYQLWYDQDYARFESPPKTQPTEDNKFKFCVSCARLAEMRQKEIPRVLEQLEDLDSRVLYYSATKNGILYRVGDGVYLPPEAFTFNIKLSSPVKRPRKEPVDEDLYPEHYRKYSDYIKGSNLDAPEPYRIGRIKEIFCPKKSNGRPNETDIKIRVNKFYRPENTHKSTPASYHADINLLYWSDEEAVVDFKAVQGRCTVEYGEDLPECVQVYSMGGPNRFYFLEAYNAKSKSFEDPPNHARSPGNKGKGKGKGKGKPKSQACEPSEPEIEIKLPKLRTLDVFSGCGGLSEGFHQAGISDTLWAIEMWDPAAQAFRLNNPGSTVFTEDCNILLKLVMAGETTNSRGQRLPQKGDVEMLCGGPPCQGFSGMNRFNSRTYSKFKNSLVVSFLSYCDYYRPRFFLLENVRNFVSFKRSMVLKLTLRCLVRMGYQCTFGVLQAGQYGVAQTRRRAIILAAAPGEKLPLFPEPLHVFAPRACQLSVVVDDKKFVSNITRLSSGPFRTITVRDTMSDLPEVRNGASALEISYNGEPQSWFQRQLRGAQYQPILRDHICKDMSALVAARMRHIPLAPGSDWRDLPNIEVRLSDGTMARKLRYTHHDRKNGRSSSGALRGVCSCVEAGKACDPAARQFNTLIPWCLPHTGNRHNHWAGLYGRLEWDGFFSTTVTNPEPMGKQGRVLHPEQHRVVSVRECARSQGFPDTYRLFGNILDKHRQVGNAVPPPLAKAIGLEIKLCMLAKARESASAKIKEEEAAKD
DNA dC->dU-editing enzyme APOBEC-3G, sequence (Q9HC16 whole entry, the tested form may be a part): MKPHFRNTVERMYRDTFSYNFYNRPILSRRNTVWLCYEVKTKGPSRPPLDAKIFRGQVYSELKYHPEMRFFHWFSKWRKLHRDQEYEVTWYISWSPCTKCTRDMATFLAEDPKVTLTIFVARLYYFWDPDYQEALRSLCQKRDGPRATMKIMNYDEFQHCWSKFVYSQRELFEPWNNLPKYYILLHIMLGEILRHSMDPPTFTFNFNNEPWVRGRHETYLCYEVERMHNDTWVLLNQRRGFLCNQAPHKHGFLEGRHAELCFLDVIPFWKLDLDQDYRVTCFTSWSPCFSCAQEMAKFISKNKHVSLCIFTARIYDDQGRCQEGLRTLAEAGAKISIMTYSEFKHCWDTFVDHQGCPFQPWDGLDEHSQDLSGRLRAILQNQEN

O=C1[C@@H]2Cc3c([nH]c4ccccc34)C(c3cccc([N+](=O)[O-])c3)N2C(=O)CN1CCCO (stereo not given in full)
IC50 [1]: 83.3 µM (inactive) | IC50 [2]: > 83.3 µM (inactive) | IC50 [3]: 0.911 µM (active) | IC50 [4]: 0.528 µM (active)

Cc1c2cnn(CC(=O)Nc3c(F)c(F)cc(F)c3F)c(=O)c2c(C)n1Cc1ccccc1F
IC50 (Prothrombin): 50.5 µM (active) | IC50 [5]: 49.3 µM (active) | IC50 [6]: 9.31 µM (active) | IC50 [7]: > 43.8 µM (inactive) | IC50 [8]: 50 µM (inactive) | IC50 [9]: 2.96 µM (active) | IC50 [10]: > 100 µM (inactive) | IC50 [11]: 19.5 µM (active) | IC50 [12]: 7.6 µM (active)

CN1CCS/C1=C/C=C1/SC(=S)N(Cc2ccccc2)C1=O
IC50 (Fibrinogen beta chain [13]): > 83.3 µM (inactive) | IC50 (Fibrinogen beta chain [14]): 10.2 µM (inactive)

CCCOC(=O)c1[nH]c2c(c1C)C(=O)CC(c1cccs1)C2 (stereo not given)
EC50 (BJ [15]): 0.399 µM (active) | EC50 (BJ [16]): 0.567 µM (active) | EC50 [17]: 0.167 µM (active) | EC50 (BJ [18]): 1.82 µM (active) | EC50 [19]: 0.391 µM (active) | EC50 [20]: 1.01 µM (active) | EC50 [21]: 0.615 µM (active) | AC50 [22]: 0.594 µM (active) | IC50 [23]: > 80 µM (inactive)

Cc1ccnc(NC(=O)c2ccc3nc(O)c(O)nc3c2)c1
EC50 [24]: > 67.5 µM (inactive) | IC50 [25]: > 67.5 µM (inactive)

C[C@@H]1CN([C@H](C)CO)S(=O)(=O)c2ccc(C#Cc3ccc(F)cc3)cc2O[C@H]1CN(C)C(=O)NC1CCCCC1
AC50 [26]: 48.1 µM (active) | AC50 (Paired box protein Pax-8): 9.47 µM (active)

Nc1nc2ccc(Cl)cc2cc1C(=O)NCCCN1CCOCC1
EC50 (Kallikrein-7): 28.3 µM (inactive)

C[C@H](CO)N1C[C@H](C)[C@@H](CN(C)CC2CCOCC2)Oc2ncc(Br)cc2C1=O
AC50 [27]: 36.4 µM (active)
